Results on eight molecules are retold here after patent publication US20020127536A1, “Mitochondrial assay” (priority 2001, published 2002).

For one test, the system named is respiratory complex II. Put plainly: Polarographic assay of uncoupled (2,4-dinitrophenol) maximal respiration with succinate: inhibition of electron transport at site II. It counts as biochemical. The conditions noted are these: 500 μM drug, isolated rat liver mitochondria, qualitative.
The next test relates to ATP synthetase. Put plainly: Polarographic assay of ADP-stimulated coupled versus uncoupled respiration: inhibition of ATP synthetase. The conditions noted are these: 500 μM drug; isolated rat liver mitochondria; qualitative. It counts as biochemical. The method, then:
(§1) When coupling is intact, basal respiration will be stimulated by the addition of ADP to invoke ATP synthesis, as electron transport is stepped up to replace the H^+ gradient that is used by the ATP synthetase enzyme. If the drug inhibits this coupled respiration rate, the inhibition could be due either to inhibition of the ATP synthetase itself or to inhibition of the electron transport rate that supports the ATP synthesis. To detect which is inhibited, the drug is also tested for inhibition of maximal electron transport rates in the presence of a known uncoupler. Inhibition of the coupled, but not the uncoupled respiration rate pinpoints the inhibition to the ATP synthetase or to one of the supporting transport processes such as the phosphate or ADP/ATP transporters.
as §1, with “The third test examines whether the drug inhibits ATP synthetase. When” for “When”, “the difference,” for “which is inhibited,”, “uncoupler, as in the first test described supra.” for “uncoupler.”, “coupled” for “coupled,”, “as” for “as the”
When coupling is intact, basal respiration is stimulated by the addition of ADP which stimulates ATP synthesis, as electron transport is stepped up to re-establish the H^+ gradient that is used by the ATP synthetase enzyme. If the drug inhibits this coupled respiration rate, the inhibition could be due either to inhibition of the ATP synthetase itself or to inhibition of the electron transport rate that supports the ATP synthesis. Haloperidol, quetiapine, risperidone, and clozapine were tested for inhibition of maximal electron transport rates in the presence and absence of a known uncoupler (FIG. 4). Inhibition of the coupled, but not the uncoupled respiration rate pinpoints the inhibition to the ATP synthetase or to one of the supporting transport processes such as phosphate or ADP/ATP transporters.

Test [1] relates to isolated rat liver mitochondria. Put plainly: Polarographic assay of basal respiration: uncoupling action. It counts as biochemical. The conditions noted are these: for Uncoupling: 500 μM drug, isolated rat liver mitochondria, qualitative; for Uncoupling action (in words): drug added to rat liver mitochondria respiring in the basal state. From the text:
Normally electron transport proceeds at a slow basal rate in the presence of an oxidizable substrate unless the H^+ gradient is dissipated by a need for ATP synthesis. However, if the H^+ gradient is dissipated by the addition of a chemical that alters membrane permeability to H^+, respiration will be stimulated unproductively, that is, without concomitant ATP synthesis, so that energy is wasted. […] If respiration (oxygen consumption) is stimulated, uncoupling is inferred.
The second test determines whether the drug uncouples electron transport from ATP synthesis. Normally, in these preparations, electron transport will proceed at a slow basal rate in the presence of an oxidizable substrate, unless the H^+ gradient is dissipated by a need for ATP synthesis. However, if the H^+ gradient is dissipated by the addition of a drug that alters membrane permeability to H^+, respiration will be stimulated unproductively (i.e., without concomitant ATP synthesis) so that energy is wasted. […] If respiration (e.g., oxygen consumption) is stimulated, uncoupling is inferred.
Normally electron transport proceeds at a slow basal rate in the presence of an oxidizable substrate unless the H^+ gradient is dissipated by a need for ATP synthesis. However, if the H^+ gradient is dissipated by the addition of a drug that alters membrane permeability to H^+ , respiration will be stimulated unproductively without concomitant ATP synthesis so that energy is wasted. Haloperidol, quetiapine, risperidone, and clozapine were added to mitochondria respiring in the basal state (FIG. 3). If respiration (i e., oxygen consumption) is stimulated, uncoupling is inferred.

Another test deals with electron transport chain. As to the kind of experiment: Polarographic assay of maximal electron transport rate (oxygen consumption), overall inhibition. In kind it is biochemical. The following applies: rat liver mitochondria, maximal rate of oxygen consumption with 2,4-dinitrophenol.
The subject of a further test is respiratory complex I. The conditions noted are these: glutamate+malate; for El. Transport Site I: 500 μM drug, isolated rat liver mitochondria, qualitative; for Inhibition of electron transport at respiratory complex I (in words): rat liver mitochondria, 2,4-dinitrophenol added, preliminary data.
In test [2] the test system is mitochondrial respiratory complex I. The following applies: literature statement; cited from earlier work.

Molecules are shown by their SMILES. “Also recorded” adds a separate entry of the source.

Protocol for electron transport chain: A known uncoupler (2,4-dinitrophenol) was added in the presence of an oxidizable substrate to elicit maximal electron transport rates, measured as the maximal rate of oxygen consumption; a slower rate in the presence of the drug indicates inhibition somewhere in the electron transport chain.
A known uncoupler of oxidative phosphorylation (e.g., 2,4-dinitrophenol) is added to the preparation to elicit maximal electron transport rates, measured as the rate of oxygen consumption. A slower rate in the presence of the drug indicates inhibition somewhere along the electron transport chain. The test is performed with different substrates that donate electrons at either respiratory complex I (glutamate and malate) or at complex II (succinate) or via electron-transferring flavoprotein (ETF) to gain information about site-specific inhibition.
Mitochondrial respiration is measured polarographically using a Clark oxygen electrode. To test for drug effect, an appropriate concentration of drug is introduced at the beginning of the assay, prior to the addition of substrate. The test substance (e.g., drug) is thus present continuously in the assays as the basal, coupled and uncoupled rates are successively determined. The solvent in which the drug is dissolved is tested alone as the control.
Rates were measured as the rate of oxygen consumption. A slower rate in the presence of the drug indicates inhibition somewhere in the electron transport chain. The tests were performed with different substrates that donate electrons at either respiratory complex I (glutamate+malate) or at complex II (succinate) to gain information about site-specific inhibition.

As to `O=C(CCCN1CCC(O)(c2ccc(Cl)cc2)CC1)c1ccc(F)cc1` [Haloperidol], the “El. Transport Site II” value in the test with respiratory complex II is given as “−”. In addition, in the test with ATP synthetase, the “ATP Synthesis” value is “−”. For the same molecule, the Uncoupling result in test [1] was “−”. Further, in the test with electron transport chain, the “Inhibition of electron transport, overall (in words)” value (from here on “Inhibition … overall (in words)”) is recorded as “potent inhibitors of electron transport”. Besides, in the test with respiratory complex I, the “El. Transport Site I” value is “++” and the “Inhibition of electron transport at respiratory complex I (in words)” value was “inhibited electron transport specifically at respiratory complex I”.

With `Cc1nc2n(c(=O)c1CCN1CCC(c3noc4cc(F)ccc34)CC1)CCCC2` [Risperidone], the “El. Transport Site II” value in the test with respiratory complex II is recorded as “+”. Besides, the “ATP Synthesis” value with ATP synthetase is on record as “−”. Moreover, in test [1], the Uncoupling entry is “++” and the “Uncoupling action (in words)” value is reported as “more potent than clozapine”. For the same molecule, the “Inhibition … overall (in words)” value with electron transport chain is reported as “inhibited electron transport markedly but not specifically at either complex I or II; also recorded: potent inhibitors of electron transport”. The “El. Transport Site I” value in the test on respiratory complex I is given as “+++”.

For the molecule `C[n+]1ccc(-c2ccccc2)cc1` [MPP^+, 1-methyl-4-phenylpyridinium], the “Inhibition of mitochondrial complex I (in words)” value in test [2] was “potent and specific inhibitor of mitochondrial respiratory complex I”.

Turning to `CSc1ccc2c(c1)N(CCC1CCCCN1C)c1ccccc1S2` (stereo not drawn) [Thioridazine], the “El. Transport Site II” value in the test on respiratory complex II was “+”. For the same molecule, the “ATP Synthesis” value in the test with ATP synthetase is listed as “−”. Moreover, in test [1], the Uncoupling entry is listed as “++” and the “Uncoupling action (in words)” value is given as “more potent than clozapine”. Further, in the test on electron transport chain, the “Inhibition … overall (in words)” value is “inhibited electron transport markedly but not specifically at either complex I or II”. Also, in the test on electron transport chain (listed as thioridazine), the “Inhibition … overall (in words)” value is listed as “potent inhibitors of electron transport”. For the same molecule, the “El. Transport Site I” value with respiratory complex I was “+++”.

Consider `O=[N+]([O-])c1ccc(O)c([N+](=O)[O-])c1` [2,4-dinitrophenol], for which, in test [1] (known uncoupler, rat liver mitochondria in basal state with oxidizable substrate), the “Stimulation of basal respiration” value was 6-10 fold.

On to `O=C(CCC[n+]1ccc(-c2ccc(Cl)cc2)cc1)c1ccc(F)cc1` [HPP^+], for which the “Inhibition of mitochondrial complex I (in words)” value in test [2] was “potent inhibitor of mitochondrial complex I”.

Regarding `CN(C)CCCN1c2ccccc2Sc2ccc(Cl)cc21` [Chlorpromazine], the “El. Transport Site II” value in the test on respiratory complex II is given as “+”. The “ATP Synthesis” value in the test with ATP synthetase is listed as “−”. Further, in test [1], the Uncoupling entry was “++” and the “Uncoupling action (in words)” value is “more potent than clozapine”. Besides, in the test on electron transport chain, the “Inhibition … overall (in words)” value is “potent inhibitors of electron transport”. In the test with respiratory complex I, the “El. Transport Site I” value was “+++” and the “Inhibition of electron transport at respiratory complex I (in words)” value is recorded as “inhibited electron transport specifically at respiratory complex I”.

Take `OCCOCCN1CCN(C2=Nc3ccccc3Sc3ccccc32)CC1` [Quetiapine]: in the test with respiratory complex II, the “El. Transport Site II” value is recorded as “−”. Besides, the “ATP Synthesis” value with ATP synthetase is given as “−”. For the same molecule, in test [1], the Uncoupling entry was “+” and the “Uncoupling action (in words)” value is recorded as “more potent than clozapine”. Also, in the test with electron transport chain, the “Inhibition … overall (in words)” value was “very mild effects”. Also, in the test with respiratory complex I, the “El. Transport Site I” value was “+”; the “Inhibition of electron transport at respiratory complex I (in words)” value is “had a slight effect and was also specific for complex I”.
